Data as given in PubChem BioAssay (NCI).
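Interpolation was linear, between the two tested concentrations surrounding the appropriate level; five concentrations were tested over 48 hours in 96-well plates. TGI: total growth inhibition.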

Experiments:
Assay in all cases: DTP human tumour cell line panel, 48 h
[1] = tested on: SK-MEL-28 melanoma
[2] = tested on: UACC-257 melanoma
[3] = tested on: MDA-MB-435
[4] = tested on: SF-268 CNS
[5] = tested on: NCI-H460 lung
[6] = tested on: UACC-62 melanoma
[7] = tested on: SK-MEL-2 melanoma
[8] = tested on: HOP-92 NSCLC
[9] = tested on: RXF 393 renal
[10] = tested on: NCI-H522 lung
[11] = tested on: SK-OV-3 ovarian
[12] = tested on: SR leukemia
[13] = tested on: DU-145 prostate
[14] = tested on: SW-620 colon
[15] = tested on: HT29 colon
[16] = tested on: MDA-MB-231 breast
[17] = tested on: KM12 colon
[18] = tested on: SK-MEL-5 melanoma
[19] = tested on: SNB-19 CNS
[20] = tested on: HCT-15 colon
[21] = tested on: SF-539 CNS
[22] = tested on: T-47D breast
[23] = tested on: A498 renal
[24] = tested on: PC-3 prostate
[25] = tested on: BT-549 breast
[26] = tested on: SN12C renal
[27] = tested on: NCI-H23 lung
[28] = tested on: M14 melanoma
[29] = tested on: OVCAR-3 ovarian
[30] = tested on: OVCAR-5 ovarian
[31] = tested on: IGROV1 ovarian
[32] = tested on: HCT-116 colon
[33] = tested on: K-562 leukemia
[34] = tested on: SF-295 CNS
[35] = tested on: 786-0 renal
[36] = tested on: CAKI-1 renal
[37] = tested on: EKVX NSCLC
[38] = tested on: NCI/ADR-RES ovarian
[39] = tested on: HOP-62 NSCLC
[40] = tested on: MDA-N
[41] = tested on: SNB-75 CNS
[42] = tested on: MOLT-4 leukemia
[43] = tested on: NCI-H226 lung
[44] = tested on: OVCAR-4 ovarian
[45] = tested on: ACHN renal
[46] = tested on: COLO 205 colon
[47] = tested on: U251 CNS
[48] = tested on: TK-10 renal
[49] = tested on: OVCAR-8 ovarian
[50] = tested on: RPMI-8226 leukemia
[51] = tested on: MALME-3M melanoma
[52] = tested on: HS 578T breast
[53] = tested on: A549 NSCLC
[54] = tested on: MCF7 breast
[55] = tested on: LOX IMVI melanoma
[56] = tested on: HL-60(TB) leukemia
[57] = tested on: HCC-2998 colon
[58] = tested on: UO-31 renal
[59] = tested on: CCRF-CEM leukemia

Measured: TGI

Cc1ccc(NC(=O)c2ccccc2C(=O)O)cc1C
not listed: [56] | [57] | [58] | [59]
> 100 µM: all other assays above

c1ccc2c3c([nH]c2c1)C1CCCN1CC3 (stereo not given)
not listed: [6] | [25] | [32] | [53]
> 10 µM: all other assays above
